The METLIN SMRT retention time set (Domingo-Almenara et al. 2019)

Assay: gradient 5% acetonitrile 3 min, to 50% in 2 min, to 85% in 15 min, held 3 min, 100 µL/min
Details: column: Zorbax Extend-C18 2.1 x 50 mm; eluents: water / acetonitrile, 0.1% formic acid
Method in brief: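 Using water and acetonitrile that each contained 0.1% formic acid, mixtures of ~100 pure standards were separated at 100 μL/min on a Zorbax Extend-C18 column (2.1 × 50 mm, 1.8 μm). The HPLC fed a quadrupole time-of-flight mass spectrometer working in positive and negative ionization mode, with dead and dwell volumes of 40 μL and 900 μL. Data were acquired over 3 months. Retention time was read from computationally picked adduct peaks after manual inspection of each.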

| RP-LC retention time | Structure (SMILES) |
| --- | --- |
| 769 s | Cc1csc(-c2cc(S(=O)(=O)NC(C)C)cn2CC(=O)N2CCCC2)n1 |
| 885 s | COc1ccc(-c2cc(C(=O)NC3CCCCC3)nn2C2CCS(=O)(=O)C2)cc1 (centres undefined) |
| 880 s | Cc1ccc(Cl)cc1N1C(=O)CN(S(C)(=O)=O)CC1(C)C(=O)NC1CCCCC1 (centres undefined) |
| 717 s | O=C(NCc1ccco1)c1cc(C2CC2)on1 |
| 649 s | Cc1cc(C)cc(-n2ncc3c(N4CCN(CCO)CC4)ncnc32)c1 |
| 595 s | CCCCC(=O)Nc1cnc(N2CCNCC2)c(C(=O)N2CCCC2)c1 |
| 660 s | COc1ccc(Cl)cc1S(=O)(=O)N1CCC(C(N)=O)CC1 |
| 953 s | O=C(O)c1ccc2c(c1)C(=O)N(Nc1ccccc1[N+](=O)[O-])C2=O |
| 827 s | COCc1nc(N2CCN(c3ccccc3F)CC2)ncc1C(=O)O |
| 637 s | Cc1nc2cccnc2n1C1CCN(C(=O)Nc2ccccc2Br)CC1 |
| 1200 s | CC(C)c1csc(-c2csc(S(=O)(=O)Nc3ccc(Br)cc3F)c2)n1 |
| 574 s | CCOCC(=O)N1C[C@@H]2CCCN3CCC[C@@H]([C@H]23)[C@H]1CCCC(=O)NCC1CC1 |
| 964 s | COc1cccc(C(=O)NC2(C(F)(F)F)C(=O)N(C3CCCC3)C(C)=C2C(C)=O)c1 (centres undefined) |
| 624 s | COCC1CN(Cc2cn[nH]c2-c2ccc(OC)cc2)CCC1(F)F (centres undefined) |
| 529 s | O=C(Nc1cccnc1)C1(CCO)CCN(c2ncccn2)C1 (centres undefined) |
| 609 s | Cc1ccc(-c2nc(-c3ccc4c(c3)oc(=O)n4C)no2)cc1F |
| 1210 s | COc1cccc(OC(=O)c2cn(CC(C)C)c(=O)c3ccccc23)c1 |
| 879 s | COC(=O)C1=CN(c2ccccc2C)c2ccc(F)cc2S1(=O)=O |
| 683 s | O=C(NCCn1nnc2cc(C(=O)N3CCCC3)ccc21)Nc1ccccc1Br |
| 840 s | CC(NC(=O)c1nnc(-c2ccc(S(=O)(=O)N(C)C)cc2)o1)c1ccccc1 (centres undefined) |
| 974 s | COc1ccc(CNC(=O)c2cn(-c3cc(N4CCCC(C)C4)ncn3)cn2)cc1 (centres undefined) |
| 771 s | CCCNc1cc(-n2nc(C)cc2C)ncn1 |

| RP-LC retention time | Structure (SMILES) |
| --- | --- |
| 619 s | CC(C)n1c(CN2CCOCC2)nc2cc(NC(=O)c3ccco3)ccc21 |
| 812 s | CCn1nc(C)c2ccnc(N3CCC(C(=O)N4CCN(c5ccccc5Cl)CC4)CC3)c21 |
| 914 s | CC(=O)Nc1cccc(C2OC(c3ccc(Cl)cc3Cl)=NN2C(C)=O)c1 (centres undefined) |
| 945 s | Cc1cc(OCC(=O)Nc2ccc(Cl)cc2F)nc(N2CCN(c3ccccc3)CC2)n1 |
| 690 s | O=C(NCc1ccc(F)c(Cl)c1)c1cn2c(n1)COCC2 |
| 619 s | Cn1c(C2CCN(C(=O)NCCc3ccccc3)CC2)cc(=O)n2nccc12 |
| 1030 s | Cc1cccc(NC(=O)C2CCCN(S(=O)(=O)N3CCC(C)CC3)C2)c1C (centres undefined) |
| 952 s | CCOCCCNC(=O)c1cc2c(n(-c3ccc(C(C)C)cc3)c1=O)CCCC2=O |
| 594 s | COC(=O)c1c(C)[nH]c(C(=O)N2CCC(CC(=O)N3CCN(C4CCCCC4)CC3)CC2)c1C |
| 897 s | CC1CC(=O)N(Cc2c(F)cccc2Cl)c2ccccc2N1 (centres undefined) |
| 880 s | CCN(CC)S(=O)(=O)c1ccc2c(c1)cc(C(=O)N1CCN(c3ncccn3)CC1)n2C |
| 681 s | CN(C)CCn1nnc2cc(-c3noc(-c4ccccc4Br)n3)ccc21 |
| 732 s | CCCC(=O)Nc1ccc2nc(N3CCN(c4cccc(C)c4C)CC3)cc(C(=O)O)c2c1 |
| 590 s | CSc1cccc2sc(NCc3cccnc3)nc12 |
| 1050 s | Cc1ccc(-c2cc(C(=O)NC3CCC(C)CC3)c(C)[nH]2)cc1 (centres undefined) |
| 615 s | Cc1noc(CNC(=O)C2CCN(C(=O)NCc3ccc(F)cc3)CC2)n1 |
| 666 s | CC(C)NC(=O)Cn1ccn2nc(-c3ccccc3)c(CO)c2c1=O |
| 777 s | CC(C)(N)C(=O)N[C@H](COCc1ccccc1)C(=O)N1CCC2(CC1)CN(S(C)(=O)=O)c1ccccc12 |
| 1060 s | Cc1ccc(-n2c(N3CCCC(C(=O)NCCC4=CCCCC4)C3)nc3ccsc3c2=O)cc1 (centres undefined) |
| 828 s | CCc1cc(=O)n(CC(=O)Nc2ccc(F)c(Cl)c2)c(N2CCOCC2)n1 |
| 879 s | Cc1ccc(C)c(NC(=O)CCc2cccc3[nH]ccc23)c1 |
| 649 s | c1ccc2c(N3CCCC3)nnc(-c3nc(C4CC4)no3)c2c1 |

| RP-LC retention time | Structure (SMILES) |
| --- | --- |
| 875 s | COc1cc(NC(=O)C2CCN(S(=O)(=O)c3ccc4c(c3)sc(=O)n4C)CC2)cc(OC)c1 |
| 913 s | O=C(NCc1ccccc1)c1c(O)c2cccnc2[nH]c1=O |
| 665 s | O=C(NCc1ccsc1)C(=O)Nc1ccon1 |
| 941 s | O=c1c2cnc3nc(-c4ccccc4)nn3c2ccn1CCc1c[nH]c2ccc(F)cc12 |
| 972 s | COc1ccccc1NC(=O)N(C)CCc1noc(COc2ccc(Cl)cc2)n1 |
| 975 s | Cc1cc2c(c(=O)n(-c3ccccc3)c(=O)n2CC(=O)Nc2ccc(C(C)C)cc2)n1C |
| 723 s | Cc1nnc2c(=O)n(CC(=O)NCc3ccc(F)c(Cl)c3)c3cccnc3n12 |
| 853 s | COc1ccc(C2CCN(C(=O)c3ccoc3)CC2)cc1 |
| 777 s | Nc1ncnc(Nc2ccccc2Cl)c1[N+](=O)[O-] |
| 861 s | CCOc1ccc(CNC(=O)C2=Cc3cc(OC)ccc3OC2)cc1OC |
| 1150 s | Cc1ccc(Sc2nccnc2N2CCCC(C(=O)NCc3ccccc3Cl)C2)cc1 (centres undefined) |
| 863 s | O=C(CN1C(=O)C2CCCCN2c2ccc(C(=O)N3CCCC3)cc21)NCc1ccc(F)cc1Cl (centres undefined) |
| 765 s | CC(C)(C)c1nnc(NC(=O)C2CCN(C(=O)c3cccc(F)c3)CC2)s1 |
| 833 s | COc1ccccc1NC(=O)NC1CCN(c2ccc(F)c(C)c2)C1=O (centres undefined) |
| 833 s | O=C(C1=NN(Cc2ccccc2F)c2cc(Cl)ccc2S1(=O)=O)N1CCOCC1 |
| 803 s | COC(=O)c1cc2c(=O)n(-c3ccc(OC)cc3OC)ccc2nc1C |
| 813 s | O=C(NC1CC1)c1ccc(OCC2CCCN2C(=O)Cc2ccc(F)cc2)cc1 (centres undefined) |
| 818 s | Cc1cc2n(n1)CCCN2C(=O)CCC(=O)N1CCC(Cc2ccccc2)CC1 |
| 1040 s | Cc1nn(-c2ccccc2)c(C)c1S(=O)(=O)N1CCC(C(=O)N2CCCc3ccccc32)CC1 |
| 838 s | Cc1scc2nc(C3CCC3)nc(N3CCC(C(=O)N4CCN(c5ccccc5F)CC4)CC3)c12 |
| 741 s | O=C(NC1CC1)C1CCN(c2nc3ccsc3c(=O)n2Cc2ccccc2)CC1 |
| 909 s | O=C(c1ccc(-c2ccsc2)nc1)N1CCN(c2ccccc2)CC1 |

| RP-LC retention time | Structure (SMILES) |
| --- | --- |
| 742 s | O=C(NCCn1nnc2cc(C(=O)N3CCCC3)ccc21)Nc1ccc(Br)cc1F |
| 972 s | CS(=O)(=O)N1CCC(C(=O)Nc2cccc(C(F)(F)F)c2)Oc2ccccc21 (centres undefined) |
| 976 s | COC(=O)C1=C(COc2ccc(C)cc2)NC(=O)NC1c1ccc(OC)c(OC)c1 (centres undefined) |
| 834 s | COC(=O)c1ccccc1NC(=O)C1CCCN(c2nnc(C)c3c(C)n(-c4ccccc4)nc23)C1 (centres undefined) |
| 1040 s | Cc1ccc(S(=O)(=O)N2CC(=O)N(CCC(C)C)C(C)(C(=O)NCc3ccccc3)C2)cc1 (centres undefined) |
| 581 s | Cc1[nH]c(=O)[nH]c(=O)c1S(=O)(=O)NC(C)C |
| 600 s | COc1cc(CCC(=O)N2C[C@@H](C(N)=O)[C@H](c3nc(C)no3)C2)on1 |
| 895 s | O=C(NC1CCCC1)C1CCCN(c2nc3ccsc3c(=O)n2Cc2ccccc2)C1 (centres undefined) |
| 924 s | O=C(NCc1ccccc1C(F)(F)F)c1cnc(-c2ccccc2)nc1-c1ccncc1 |
| 617 s | CC(=O)NC1(C(=O)O)CCCC1 |
| 963 s | CC(C)Oc1ccc(C(=O)N(Cc2ccc(Br)o2)C2CCS(=O)(=O)C2)cc1 (centres undefined) |
| 811 s | Cc1ccccc1-c1cc(C(=O)N2CCC(NC(=O)C3CCC(C)CC3)CC2)[nH]n1 (centres undefined) |
| 726 s | CN1C(=O)c2cccnc2Sc2cc(C(=O)NC3CCCC3)ccc21 |
| 935 s | O=C(c1ccc([N+](=O)[O-])cc1)N(Cc1ccccc1)Cc1ccco1 |
| 662 s | CCC(=O)N1CCc2cc(C(=O)N3CCN(C(=O)c4ccco4)CC3)ccc21 |
| 655 s | Cn1nc(CN2CCCC2)c2c1CCN(S(=O)(=O)c1ccccc1C(F)(F)F)C2 |
| 1200 s | Cc1ccc(-n2ncc3c(=O)n(Cc4nc(-c5ccc(OC(C)C)cc5)no4)cnc32)cc1 |
| 823 s | O=C(NCc1ccco1)c1ccc2c(c1)N(C(=O)c1ccc(F)cc1)CC2 |
| 640 s | CC1CCN(C(=O)c2cn(-c3cc(-c4nc(C(C)C)no4)ccn3)cn2)CC1 |
| 787 s | CCOc1ccc2ncc(S(=O)(=O)c3ccccc3)c(N3CCN(C)CC3)c2c1 |
| 604 s | Cc1cc(N2CCN(C)CC2)nc2ccc(NC(=O)Nc3ccccc3Cl)cc12 |
| 1010 s | COc1ccc2cccc(NC(=O)c3ccco3)c2n1 |

| Structure (SMILES) | RP-LC retention time |
| --- | --- |
| CCNC(=O)C[C@@H]1N=C(c2ccc(Cl)cc2)c2cc(OC)ccc2-n2c(C)nnc21 | 797 s |
